# Where two headings read alike, the source gives them in different places. Bridge positions count the residues as written; N and C are the ends. Peptide text beside a SMILES is read from it.
# Target: T1, hKv1.3 (Homo sapiens, UniProt P22001)
# T1 construct: expressed in transfected cells; host or cells: CHO-K1
# Assay: Whole-cell patch clamp, Kv1.3 ionic current in CHO-K1 cells
# Type: cell-based
# Conditions: mean ± SD; for IC50: 500 ms depolarization to +30 mV from −80 mV holding, CHO-K1, room temperature
# Method: The cDNA of hKv1.1, hKv1.2, hKv1.3, rKv1.4, hKv1.5, mKv1.6, and hKv1.7 were subcloned into mammalian expression vectors pcDNA3.1 or pCMV-blank vectors, as well as other plasmids described previously ([35]). Channel mutants were generated by site-directed mutations. Briefly, the parental channel plasmid was amplified using a pair of oppositely directed primers harboring the designed mutation site, with KOD Fx (TOYOBO Co, Ltd). The resulting PCR mix was treated with FastDigest DpnI (Thermo Fisher Scientific) to remove the methylated template. Ten microliters of the digested product was then used to transform 100 μl E. coli DH5α competent cells. Transformants were randomly picked and sequenced to confirm the presence of the intended mutation.
# CHO-K1 cells were selected for expressing Kv channels due to their lack of endogenous Kv channels, while HEK293 or ND7/23 cells were used for Nav and Cav channel expression. CHO-K1 cells were cultured in a Dulbecco's modified Eagle's medium/Ham's F-12 nutrient mixture (DMEM-F12) medium, and HEK293T and ND7/23 cells in DMEM medium, all supplemented with 10% fetal bovine serum and 1% penicillin-streptomycin (all from Gibco, Thermo Fisher Scientific, Inc) under standard conditions (37 °C, 5% CO2, and saturated humidity). These cell lines were purchased from Stem Cell Bank, Chinese Academy of Sciences. Channel plasmids were cotransfected with pEGFP-N1 (encoding GFP) into the respective cells using lipofectamine 2000, following the manufacturer's instructions (Invitrogen, Thermo Fisher Scientific, Inc.). Nav1.9-GFP plasmid was transfected into ND7/23 using the X-tremeGENE HP DNA Transfection Reagent (Roche). After 4 to 6 h transfection, cells were seeded onto poly-lysine–coated coverslips, and 24 to 36 h later, transfected cells were ready for patch-clamp analysis.
# Patch clamp experiments were conducted using an electrophysiology platform comprising a MultiClamp 700B amplifier and an Axon Digidata 1550 AD/DA convertor (Axon Instruments). Data acquisition was performed with pClamp 10.5 software (Axon Instruments). All experiments were performed at room temperature.
# For Kv current recordings, the bath solution contained (in mM) the following: 140 NaCl, 5 KCl, 1 MgCl2, 2 CaCl2, 10 glucose, and 10 Hepes (pH 7.3, adjusted with NaOH), and the pipette solution contained (in mM) the following: 140 KCl, 2.5 MgCl2, 11 EGTA, and 10 Hepes (pH 7.3, adjusted with KOH). Series resistance was maintained below 10 MΩ and compensated to 80%. Concentration–response curves were fitted by the Hill equation to determine the toxin's potency. Whole cell conductance (G) at each depolarizing voltage (V) was determined using the equation: G = I/(V−Vrev), where I is the current amplitude, and Vrev is the reversal potential. The reversal potential for K^+ current was estimated to be −85.6 mV using the Nernst equation. G-V curves were obtained by plotting the normalized conductance as a function of V and fitted by the Boltzmann equation: y = 1/(1+ exp((Va-V)/k)), which Va is the midpoint voltage, V is the test potential, and k is the slope factor. The steady-state fast inactivation of Kv1.3 was measured using a two-pulses protocol. The cell was held at −120 mV, and a train of conditional voltages (−120–40 mV in 10 mV increments, 60 s) were applied to induce channel inactivation, followed by a +60 mV test pulse (300 ms) to assess the proportion of noninactivated channels. The sweep interval was set to 30 s. Currents at the test pulse (I) were normalized to the maximum value (Imax) and plotted as a function of the conditional voltage (V). The curve was fitted by the Boltzmann equation: I/Imax = A+(1 − A)/(1+exp ((V−Vh)/K)), where Vh is the half-maximum inactivation voltage, A represents the minimum channel availability, and k is the slope factor.
# T1 sequence (P22001 whole entry): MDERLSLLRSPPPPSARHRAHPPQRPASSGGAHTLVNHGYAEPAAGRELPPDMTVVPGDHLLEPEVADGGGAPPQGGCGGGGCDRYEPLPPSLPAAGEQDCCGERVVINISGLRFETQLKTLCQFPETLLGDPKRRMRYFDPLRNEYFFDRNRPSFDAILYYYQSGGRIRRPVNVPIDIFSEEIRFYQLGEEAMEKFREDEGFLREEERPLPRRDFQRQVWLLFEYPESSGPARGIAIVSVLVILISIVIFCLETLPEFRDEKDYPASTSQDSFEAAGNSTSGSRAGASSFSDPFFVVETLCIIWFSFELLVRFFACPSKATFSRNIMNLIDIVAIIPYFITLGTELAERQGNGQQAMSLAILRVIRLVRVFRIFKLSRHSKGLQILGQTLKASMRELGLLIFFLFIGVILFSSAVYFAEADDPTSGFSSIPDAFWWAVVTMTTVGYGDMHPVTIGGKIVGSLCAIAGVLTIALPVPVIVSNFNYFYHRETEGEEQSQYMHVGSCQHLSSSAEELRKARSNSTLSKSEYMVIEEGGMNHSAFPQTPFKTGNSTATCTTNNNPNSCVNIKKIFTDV
smiles,measurement,setting,value
"CC[C@H](C)[C@@H]1NC(=O)[C@H](Cc2ccc(O)cc2)NC(=O)[C@H](CCC(N)=O)NC(=O)[C@@H]2CCCN2C(=O)[C@@H]2CSSC[C@H](NC(=O)[C@H](C)NC(=O)[C@H](CO)NC(=O)[C@H](CCC(=O)O)NC(=O)[C@H](CCC(=O)O)NC(=O)[C@@H](N)[C@@H](C)O)C(=O)NCC(=O)NCC(=O)N[C@@H](Cc3ccccc3)C(=O)N[C@@H](CC(N)=O)C(=O)N[C@@H](C)C(=O)N[C@@H](CCCNC(=N)N)C(=O)N[C@H]3CSSC[C@H](NC1=O)C(=O)N[C@@H](CCCCN)C(=O)NCC(=O)N[C@@H](Cc1c[nH]c4ccccc14)C(=O)N[C@@H](CCCNC(=N)N)C(=O)N[C@@H]([C@@H](C)O)C(=O)N[C@@H](CCCCN)C(=O)N[C@@H](CCCNC(=N)N)C(=O)N[C@H](C(=O)N[C@@H](CC(C)C)C(=O)N[C@@H](CC(N)=O)C(=O)N1CCC[C@H]1C(=O)O)CSSC[C@H](NC(=O)[C@H](CCCCN)NC(=O)[C@H](Cc1c[nH]cn1)NC(=O)[C@H](CC(C)C)NC(=O)[C@@H]1CCCN1C3=O)C(=O)N2 [MrVIII] (H-TEESACGGFNARCPLHKCCPQYICKGWRTKRCLNP-OH; disulfide 6-19, 13-24, 18-32; N-terminus and C-terminus assumed)",Va of G-V curve of Kv1.3 after toxin,"5 nM MrVIII, control Va = −26.4 ± 4.6 mV, Boltzmann fit",−27.7 ± 5.1 mV
same,Vh of steady-state inactivation of Kv1.3 after toxin,"5 nM MrVIII, control Vh = −42.2 ± 4.7 mV, two-pulse protocol",−42.5 ± 2.4 mV
same,"time constant for toxin association, Kv1.3","10 nM MrVIII, n = 6",5.4 ± 1.2 s
same,IC50,"native toxin, n = 7, read-out: IC50, inhibition of Kv1.3 peak current",4.4 ± 1.1 nM
same,IC50,"synthetic refolded toxin, n = 7, read-out: IC50, inhibition of Kv1.3 current",4.8 ± 1.6 nM
same,time constant for dissociation from Kv1.3,"washout with bath solution after 10 nM MrVIII, n = 6",33.4 ± 8.3 s
